Values joined by “and” are separate entries in the source; they are usually repeats but may differ in a detail not shown here. Equal entries are not always repeated. “Also recorded” adds a separate entry of the source.
Legend:
[1] = system: Daudi cells; experiment: Ternary binding assay: recruitment of PE-labeled human IgG1k to Daudi cells (flow cytometry, MFI); format: cell-based; details: duplicate columns
Description: Various technologies can be utilized to assess and/or characterize recruitment of antibodies to target cells, e.g., cancer cells. One such assay is a ternary binding assay. An exemplary protocol is described herein. Compounds were diluted in DMSO (MP 191418) to 1000× the starting concentration used in the assay into a 96 well polypropylene plate (Corning 3357). They were then serially diluted in ½ log increments to generate 8-12 concentrations in DMSO (assay dependent). These DMSO stocks were then step diluted 1/100 into PBS (VWR Cat. #20012043). Step diluted compound range was then added into the polypropylene assay plate 1/10 the volume of the assay volume. Daudi (ATCC CCL-213), a non-adherent cell line, were counted and centrifuged and resuspended at a concentration of 100,000 cells per 90 ul in Flow buffer: 1% BSA (American Bio AB01088-00100); 0.5 mM EDTA (VWR 45001-122); PBS (VWR Cat. #20012043) with 11.1 ug/mL human IgG1k Phycoerythrin labeled (SouthernBiotech #0151K-09 PE). The cells were then added into the polypropylene plate with the step diluted compounds and incubated at 37° C. for 30 min. At the end of the incubation, the cells were centrifuged and washed 2× with How buffer containing 0.5% Tween 20 (BP337-500). Samples were analyzed on a BD FacsCelesta. Mean fluorescence was analyzed using Graphpad Prism and curves were fit using log(inhibitor) vs. response—Variable slope (four parameters).

[2] = system: Effector cells (ADCC reporter cells) with Daudi cells; experiment: ADCC reporter assay: Daudi cells, IVIG and ADCC reporter effector cells (luciferase, RLU); format: cell-based; details: IVIG; for Luminescence, ADCC reporter assay: duplicate columns
Description: Daudi (ATCC CCL-213) cells were resuspended in Opti-MEM (Thermo Fisher Scientific #31985070), counted (Life Technologies Countless II cell counter) and plated (5,000 cells in 25 uL/well; Corning plates: 3917). Compounds w diluted in DMSO (MP 191418) to 1000× the starting concentration used in the assay into a 96 well polypropylene plate (Corning 3357). They were then serially diluted in ½ log increments to generate 8 concentrations in DMSO (assay dependent). These DMSO stocks were then step diluted 1/250 into Opti-MEM. Step diluted compound range was then added into the polypropylene assay plate 25 uL/well. The human antibody solution (Grifols IVIG Fleogogamma #61953-0005-2) was diluted to 40 ug/mL and added 25 uL/well. Effector cells (ADCC reporter cells—Promega kit: G7018) were added 37,500 in 25 uL/well. The assay was then incubated 18 h at 37° C. Following the induction period, the plate was equilibrated to 25° C. followed the addition of the luciferase substrate (75 uL/well, 1 vial in 10 mL of Bio-Glo assay buffer, Promega kit: G7018). The luminescence was measured (Biotek Synergy H1 microplate reader).

[3] = system: Daudi cells; experiment: KILR ADCC killing assay: KILR-transfected Daudi cells with purified NK cells (% dead cells); format: cell-based; details: for % dead cells, KILR ADCC killing assay: KILR Daudi cells with purified NK cells, duplicate columns
Description: In some embodiments, CD38-ABT ARMs bind to target cells and antibodies, e.g., human antibodies. In some embodiments, such ternary structures present antibodies to effector cells such as NK cell and bind to, e.g., CD16a receptors. […] Daudi cells were transfected with KILR reporter construct (DiscoverX #97-0002). An attenuated lentivirus was designed to deliver a Moloney Murine Leukemia Virus (MMLV) engineered to drive expression of a housekeeping gene tagged with Enhanced ProLabel (ePL) a beta-Galactosidase (beta-gal) reporter fragment. This construct was designed to remain inside cells. Death leads to the release of the KILR reporter protein into the medium. Detection reagent (DiscoverX #97-0001L) contained the complementing beta-gal reporter fragment enzyme acceptor (EA). The two components combined to generate a chemiluminescent signal.

[4] = system: NK cells; experiment: Depletion of CD38-expressing effector cells: purified NK cells, 18 h, Zombie viability dye; format: cell-based, human; details: I-9 300 nM-10 nM, Daratumumab 3 ug/mL-0.1 ug/mL, IvIG 10 ug/mL, 18 h (FIG. 4)
Description: In some embodiments, provided technologies provides various advantages compared to existing CD38-based technologies, e.g., those using CD38 antibodies. […] As appreciated by those skilled in the art, various technologies can be utilized to assess depleting of CD38-expressing effector cells. In one example, NK cells were purified from frozen stock using 3×10^7 PBMC preparations ([…] technologies) using EasySep™ Human NK cell Isolation Kit […] Technologies (cat #17955) according to manufacturer's instructions. NK cells were plated at the density of 2×10^6 cells per mL of OPTIMEM media, in a 100 uL volume per well of round bottom 96 well plates. Daratumumab was added to a final concentration range of 3 ug/mL to 0.1 ug/mL. […] IvIG was used at a final concentration of 10 ug/mL. Cells were mixed by pipetting up and down and incubated for 18 h at 37° C. At the end of the incubation period, cells were centrifuged at 400 g for 5 min and re-suspended in PBS. Following this, cells were stained with 1 uM Zombie viability dye (Biolegend, catalog #423111) according to manufacturer's instructions and incubated for 15 minutes at room temperature. […] Cells were analyzed on BD FACSCelesta flow cytometer (BD Biosciences). […] Percentages of Zombie green positive NK cells were analyzed and graphed using GraphPad Prism software.

CCCCC[C@@H]1NC(=O)[C@H](CCCNC(=N)N)NC(=O)[C@H](C)NC(=O)CSC[C@@H](C(=O)NCCOCCOCCOCCOCCOCCOCCn2nnc3c2CCC2C(CC3)C2COC(=O)N2CCC(C(=O)NCC(=O)N[C@H](CCC(=O)N[C@H](CCC(=O)N[C@H](CCC(=O)NCCCCCCCCCCCC(=O)O)C(=O)N[C@H](CCC(=O)N[C@H](CCC(=O)NCC(=O)NCC(=O)N[C@@H](CC(=O)O)C(=O)N[C@H]3CSSC[C@@H](C(=O)N[C@H](C(=O)O)[C@@H](C)O)NC(=O)[C@H](Cc4c[nH]c5ccccc45)NC(=O)[C@H](C(C)C)NC(=O)[C@H](CC(C)C)NC(=O)[C@H](CCC(=O)O)NC(=O)CNC(=O)[C@H](CC(C)C)NC(=O)[C@H](Cc4c[nH]cn4)NC(=O)[C@H](Cc4c[nH]c5ccccc45)NC(=O)[C@H](C)NC3=O)C(=O)O)C(=O)O)C(=O)O)C(=O)O)CC2)NC(=O)[C@H](CC(=O)O)NC(=O)[C@H](CCCCC)NC(=O)[C@H](Cc2ccc(-c3ccccc3)cc2)NC(=O)[C@H](CC(C)C)NC(=O)[C@H](C(C)C)NC(=O)CNC(=O)[C@H](CC(=O)O)NC(=O)[C@H](Cc2c[nH]cn2)NC(=O)[C@H](Cc2ccc(O)cc2)NC1=O (stereo partly shown) [I-9]
MFI, recruitment of PE-labeled human IgG1k to Daudi cells ([1]; compound 0.03 nM): 2297 and 2037 | MFI, recruitment of PE-labeled human IgG1k to Daudi cells ([1]; compound 0.1 nM): 2514 and 2495 | MFI, recruitment of PE-labeled human IgG1k to Daudi cells ([1]; compound 0.3 nM): 2861 and 2727 | MFI, recruitment of PE-labeled human IgG1k to Daudi cells ([1]; compound 1 nM): 3063 and 2925 | MFI, recruitment of PE-labeled human IgG1k to Daudi cells ([1]; compound 3 nM): 4268 and 4210 | MFI, recruitment of PE-labeled human IgG1k to Daudi cells ([1]; compound 10 nM): 7133 and 6933 | MFI, recruitment of PE-labeled human IgG1k to Daudi cells ([1]; compound 30 nM): 10630 and 8384 | MFI, recruitment of PE-labeled human IgG1k to Daudi cells ([1]; compound 100 nM): 9899 and 10608 | MFI, recruitment of PE-labeled human IgG1k to Daudi cells ([1]; compound 300 nM): 7835 and 7873 | MFI, recruitment of PE-labeled human IgG1k to Daudi cells ([1]; compound 1000 nM): 4929 and 5108 | MFI, recruitment of PE-labeled human IgG1k to Daudi cells ([1]; compound 3000 nM): 4383 and 4301 | EC50 ([2]; ADCC reporter assay): 5.5 nM | EC70 ([2]; ADCC reporter cells, 18 h, one set of experiment (FIG. 2)): about 0.92 nM | Luminescence, ADCC reporter assay ([2]; compound 0.3 nM, 18 h): 18458 RLU and 20362 RLU | Luminescence, ADCC reporter assay ([2]; compound 1 nM, 18 h): 20777 RLU and 20342 RLU | Luminescence, ADCC reporter assay ([2]; compound 3 nM, 18 h): 24006 RLU and 24206 RLU | Luminescence, ADCC reporter assay ([2]; compound 10 nM, 18 h): 35274 RLU and 44761 RLU | Luminescence, ADCC reporter assay ([2]; compound 30 nM, 18 h): 55170 RLU and 59273 RLU | Luminescence, ADCC reporter assay ([2]; compound 100 nM, 18 h): 60746 RLU and 68867 RLU | Luminescence, ADCC reporter assay ([2]; compound 300 nM, 18 h): 55313 RLU and 76306 RLU | Luminescence, ADCC reporter assay ([2]; compound 1000 nM, 18 h): 51790 RLU and 65856 RLU | EC50 ([3]; KILR Daudi cells, purified NK cells, one set of experiments (FIG. 3)): 6.7 nM | % dead cells, KILR ADCC killing assay ([3]; compound 0.3 nM): 5.1% and 5.5% | % dead cells, KILR ADCC killing assay ([3]; compound 1 nM): 4.8% and 4.7% | % dead cells, KILR ADCC killing assay ([3]; compound 3 nM): 5% | % dead cells, KILR ADCC killing assay ([3]; compound 10 nM): 5.3% and 5.7% | % dead cells, KILR ADCC killing assay ([3]; compound 30 nM): 6.1% and 6.9% | % dead cells, KILR ADCC killing assay ([3]; compound 100 nM): 6.6% and 7.4% | % dead cells, KILR ADCC killing assay ([3]; compound 300 nM): 7.3% and 8.1% | % dead cells, KILR ADCC killing assay ([3]; compound 1000 nM): 6.8% and 6.7% | Depletion of CD38-expressing effector cells (NK cells) [4]: did not deplete CD38-expressing effector cells; also recorded: do not significantly deplete effector cells

From patent US20230028880A1, “CD38-BINDING AGENTS AND USES THEREOF” (Biohaven Therapeutics Ltd., priority 2019, published 2023)
